The experiment relates to HCC1954 breast cancer cells (HER2+ cell line). The experiment is described as follows: Antitumor test, subcutaneous HCC1954 breast cancer xenograft, tumor growth inhibition. It counts as in vivo, CB17-SCID mice. As to conditions: AZD4573 monotherapy in the HCC1954 model. How it is done: Tumor volume was monitored via caliper measurements, and mice were randomized based on mean tumor size. […] All AZD4573 doses were administered IP, 2 hours apart. A BID regimen was used for 10 mg/kg dose, and TID was used for 5 mg/kg dose. AZD4573 dosing was given weekly thereafter for a total of 3 cycles.
Data represents change in tumor volume over time for treatment groups.

Regarding `CC(=O)N[C@@H]1CCC[C@H](C(=O)Nc2cc(-c3cnn4c3CC(C)(C)C4)c(Cl)cn2)C1` [AZD4573, (1S,3R)-3-acetamido-N-(5-chloro-4-(5,5-dimethyl-5,6-dihydro-4H-pyrrolo[1,2-b]pyrazol-3-yl)pyridin-2-yl)cyclohexanecarboxamide], the tumor growth control entry is reported as “minimal tumor growth control”.

Values taken from US20230233540A1, “COMBINATION OF ANTIBODY-DRUG CONJUGATE AND CDK9 INHIBITOR” (AstraZeneca UK Limited, priority 2020, published 2023).
